Reference: patent publication US6087119A, “Method for determining the catalytic activity of factor IXa” (Roche Diagnostics GmbH, priority 1996, dated 2000)
Square brackets hold non-standard residues; d marks the D form. Peptide text beside a SMILES is read from it. * marks the point of attachment. dChg = N[C@@H](C(=O)O)C1CCCCC1; pNA = O=[N+]([O-])c1ccc(N*)cc1; Ms = CS(=O)(=O)*

Legend:
[1] = biological target: T1, rFIXa (human) (Homo sapiens, UniProt P00740); experiment: Kinetics of cleavage of chromogenic peptide substrates by rFIXa with ethylene glycol (Lineweaver Burk); format: biochemical; design: coding for the FIX protease domain from amino acid position 181 to 415; Met (ATG start codon) (N); made in house; settings: substrate MeSO2-D-CHG-Gly-Arg-pNA, rFIXa […], pH 7.4
Method: MeSO2 -D-HHT-Gly-Arg-pNA (0.102-1.02 mmol/l)
(§1) 0.48 μmol/l rFIXa (human)
MOC-D-Nle-Gly-Arg-pNA (0.102-1.02 mmol/l)
MeSO2 -D-CHG-Gly-Arg-pNA (0.102-1.02 mmol/l)
0.28 μmol/l rFIXa (human)
The kinetic constants (Kcat /Km) were determined graphically according to Lineweaver Burk (Km and Kcat cannot be determined separately since the straight lines go through the origin).
Target sequence in this assay (P00740 227-461): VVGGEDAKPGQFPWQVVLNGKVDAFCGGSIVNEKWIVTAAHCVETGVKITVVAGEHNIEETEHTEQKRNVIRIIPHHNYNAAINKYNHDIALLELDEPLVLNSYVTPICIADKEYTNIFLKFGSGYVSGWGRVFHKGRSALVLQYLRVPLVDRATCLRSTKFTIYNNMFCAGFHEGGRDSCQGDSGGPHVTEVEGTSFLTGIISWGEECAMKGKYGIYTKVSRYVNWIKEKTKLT
Target sequence in this assay (P00740 131-226): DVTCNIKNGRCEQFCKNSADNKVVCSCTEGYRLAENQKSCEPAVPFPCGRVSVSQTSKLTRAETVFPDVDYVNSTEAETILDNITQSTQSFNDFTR

[2] = biological target: T1, rFIXa (human); experiment: Influence of alcohols and organic solvents on the activity of rFIXa, chromogenic peptide substrates; format: biochemical; design: coding for the FIX protease domain from amino acid position 181 to 415; Met (ATG start codon) (N); made in house; settings: pH 7.4; for V/V0: MeSO2-D-HHT-Gly-Arg-pNA 1.02 mmol/l, 0.48 μmol/l rFIXa; for effect on the activity of rFIXa (in words): additive 0-50%, MeSO2-D-HHT-Gly-Arg-pNA
Method: The reaction was started by adding FIXa.
MeSO2 -D-HHT-Gly-Arg-pNA→MeSO2 -D-HHT-Gly-Arg+pNA measurement signal: pNA
as §1
Target sequence in this assay (P00740 227-461 limits assumed): as the sequence (P00740 227-461) above
Target sequence in this assay (P00740 131-226 partner limits assumed): as the sequence (P00740 131-226) above
0-50% (alcohol or organic solvent)
The ratio V/V0 was calculated to illustrate the stimulation of the catalytic activity of rFIXa.
V0, reaction rate without additives
V, reaction rate in the presence of additives
Test Mixture Chromogenic (Concentration in the Test)

`CS(=O)(=O)N[C@@H](C(=O)NCC(=O)N[C@@H](CCCNC(=N)N)C(=O)Nc1ccc([N+](=O)[O-])cc1)C1CCCCC1` [MeSO2 --D--CHG--Gly--Arg--pNA, MeSO2 -D-CHG-Gly-Arg-pNA] (Ms-[dChg]-Gly-Arg-pNA) was tested, and the “kkat /Km” value ([1]; 8% ethylene glycol) was 0.637 L/mmol/s, the “kkat /Km” value ([1]; 16% ethylene glycol) was 1.974 L/mmol/s and the “kkat /Km” value ([1]; 25% ethylene glycol) was 2.880 L/mmol/s. The “kkat /Km” value ([1]; 33% ethylene glycol) was 3.480 L/mmol/s, the “kkat /Km” value ([1]; 41% ethylene glycol) was 1.929 L/mmol/s and the “kkat /Km” value ([1]; 50% ethylene glycol) was 0.576 L/mmol/s.

Work on `CN(C)C=O` [DMF, dimethylformamide] yielded a V/V0 ([2]; 8% additive) of 0.649, a V/V0 ([2]; 16% additive) of 0.514 and a V/V0 ([2]; 25% additive) of 0. It also gave a V/V0 ([2]; 33% additive) of 0, a V/V0 ([2]; 41% additive) of 0 and a V/V0 ([2]; 50% additive) of 0. The “effect on the activity of rFIXa (in words)” value [2] was “inactivate the enzyme”.

With `CC(C)(C)O` [t-Butanol] the V/V0 ([2]; 8% additive) was 2.05, the V/V0 ([2]; 16% additive) was 1.67 and the V/V0 ([2]; 25% additive) was 0.702. The V/V0 ([2]; 33% additive) was 0.368, the V/V0 ([2]; 41% additive) was 0.263 and the V/V0 ([2]; 50% additive) was 0.263.

With `CC(C)O` [i-Propanol] the V/V0 ([2]; 8% additive) was 2.17, the V/V0 ([2]; 16% additive) was 2.48 and the V/V0 ([2]; 25% additive) was 1.18. The V/V0 ([2]; 33% additive) was 0.346, the V/V0 ([2]; 41% additive) was 0.164 and the V/V0 ([2]; 50% additive) was 0.164.

Work on `OC[C@@H](O)[C@@H](O)CO` [m-Erythritol] yielded a V/V0 ([2]; 8 g/100 ml additive) of 1.16, a V/V0 ([2]; 16 g/100 ml additive) of 1.35 and a V/V0 ([2]; 25 g/100 ml additive) of 1.49. It also gave a V/V0 ([2]; 33 g/100 ml additive) of 1.56, a V/V0 ([2]; 41 g/100 ml additive) of 1.64 and a V/V0 ([2]; 50 g/100 ml additive) of 1.77. The “effect on the activity of rFIXa (in words)” value [2] was “only has a slight effect”.
